Experimental data from PubChem BioAssay (NCI).
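Test compounds were applied to cells in 96-well plates for 48 hours at 5 doses. The concentration for full growth arrest is given as TGI.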

Tests used:
Assay in all cases: NCI-60 cell line screen, 48 h
786-0 renal = test system: 786-0 renal
A498 renal = test system: A498 renal
A549 NSCLC = test system: A549 NSCLC
IGROV1 ovarian = test system: IGROV1 ovarian
MALME-3M melanoma = test system: MALME-3M melanoma
MDA-MB-231 breast = test system: MDA-MB-231 breast
MDA-N = test system: MDA-N
OVCAR-3 ovarian = test system: OVCAR-3 ovarian
OVCAR-4 ovarian = test system: OVCAR-4 ovarian
OVCAR-5 ovarian = test system: OVCAR-5 ovarian
T-47D breast = test system: T-47D breast

## Cc1cc(Cc2c(F)c(F)c(Cc3cc(C)no3)c(F)c2F)on1
786-0 renal
  TGI: > 100 µM
A498 renal
  TGI: > 100 µM
A549 NSCLC
  TGI: 25.8 µM
IGROV1 ovarian
  TGI: > 100 µM
MALME-3M melanoma
  TGI: > 100 µM
MDA-MB-231 breast
  TGI: > 100 µM
MDA-N
  TGI: > 100 µM
OVCAR-3 ovarian
  TGI: > 100 µM
OVCAR-4 ovarian
  TGI: > 100 µM
OVCAR-5 ovarian
  TGI: > 100 µM
T-47D breast
  TGI: > 100 µM
